Assay results as given in PubChem BioAssay AID328 (DTP/NCI, 2004).
Where “and” joins values, the source holds several entries; their conditions need not be identical. Equal entries are not always repeated. Inconclusive results and toxic doses are left out. The calls were made as follows: active = survival T/C of 150% or more; inactive = T/C below 125% in these data.

System: BDF1 mice, P388 leukemia ip, median survival T/C
Test: NCI In Vivo Anticancer Drug Screen. Data for tumor model P388 Leukemia (intraperitoneal) in B6D2F1 (BDF1) mice
Details: endpoint: median survival time, higher = longer survival
How it was run: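 Reported as T/C, where T is the survival measurement in dosed animals and C the same measurement in vehicle controls.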

[1] = dose: 50.0 mg/kg/injection, schedule: Q01DX009 (ip), vehicle: saline with Tween-80
[2] = dose: 100.0 mg/kg/injection, schedule: Q01DX009 (ip), vehicle: saline with Tween-80
[3] = dose: 200.0 mg/kg/injection, schedule: Q01DX009 (ip), vehicle: saline with Tween-80
[4] = dose: 100.0 mg/kg/injection, schedule: Q01DX009 (ip), vehicle: saline
[5] = dose: 200.0 mg/kg/injection, schedule: Q01DX009 (ip), vehicle: saline
[6] = dose: 100.0 mg/kg/injection, schedule: Q04DX003 (ip), vehicle: saline with Tween-80
[7] = dose: 200.0 mg/kg/injection, schedule: Q04DX003 (ip), vehicle: saline with Tween-80
[8] = dose: 400.0 mg/kg/injection, schedule: Q04DX003 (ip), vehicle: saline with Tween-80
[9] = dose: 400.0 mg/kg/injection, schedule: Q01DX009 (ip), vehicle: saline with Tween-80
[10] = dose: 100.0 mg/kg/injection, schedule: Q04DX003 (ip), vehicle: Klucel (hydroxypropylcellulose) (HPC)
[11] = dose: 200.0 mg/kg/injection, schedule: Q04DX003 (ip), vehicle: Klucel (hydroxypropylcellulose) (HPC)
[12] = dose: 6.25 mg/kg/injection, schedule: Q01DX009 (ip), vehicle: saline with Tween-80
[13] = dose: 12.5 mg/kg/injection, schedule: Q01DX009 (ip), vehicle: saline with Tween-80
[14] = dose: 100.0 mg/kg/injection, schedule: Q04DX003 (ip), vehicle: saline
[15] = dose: 200.0 mg/kg/injection, schedule: Q04DX003 (ip), vehicle: saline
[16] = dose: 400.0 mg/kg/injection, schedule: Q04DX003 (ip), vehicle: saline
[17] = dose: 25.0 mg/kg/injection, schedule: Q01DX009 (ip), vehicle: saline with Tween-80
[18] = dose: 400.0 mg/kg/injection, schedule: Q04DX003 (ip), vehicle: Klucel (hydroxypropylcellulose) (HPC)
[19] = dose: 100.0 mg/kg/injection, schedule: Q01DX009 (ip), vehicle: other
[20] = dose: 200.0 mg/kg/injection, schedule: Q01DX009 (ip), vehicle: other
[21] = dose: 25.0 mg/kg/injection, schedule: Q04DX003 (ip), vehicle: saline with Tween-80
[22] = dose: 50.0 mg/kg/injection, schedule: Q01DX009 (ip), vehicle: saline

Measured: T/C

CC1=NN(c2ccccc2)C(=O)C1C(=S)SC1CC(=O)NC1=O (stereo not given)
inactive: [1] 117 % of control | [2] 103 % of control | [3] 108 % of control

O=C(Nc1ccc(Br)cc1)c1cc(Br)ccc1O
inactive: dose: 50.0 mg/kg/injection, schedule: Q01DX010 (ip), vehicle: steriod suspending solution 104 % of control | dose: 100.0 mg/kg/injection, schedule: Q01DX010 (ip), vehicle: steriod suspending solution 100 % of control | dose: 200.0 mg/kg/injection, schedule: Q01DX010 (ip), vehicle: steriod suspending solution 100 % of control | dose: 400.0 mg/kg/injection, schedule: Q01DX010 (ip), vehicle: steriod suspending solution 109 % of control

CCC1OC(=O)C(C)C(OC2CC(C)(O)C(O)C(C)O2)C(C)C(O)C(C)(O)CC(C)C(=O)C(C)C(O)C1C (stereo not given)
inactive: [4] 100 % of control | [5] 94 % of control

CCSC(C#N)=C(c1ccccc1)c1ccccc1
inactive: [6] 103 % of control | [7] 94 % of control | [8] 92 % of control

O=Cc1[nH]c(=S)[nH]c(=O)c1Cc1cccc(Cl)c1
inactive: [2] 115 % of control | [6] 113 % of control | [7] 118 % of control | [8] 113 % of control

NC(C(=O)O)C(O)c1ccc2c(c1)OCO2 (stereo not given)
inactive: [2] 95 % of control | [3] 105 % of control | [9] 95 % of control

CCOC(=O)C(C)(C)CN(CC(C)(C)C(=O)OCC)C(C)(C)C
inactive: dose: 50.0 mg/kg/injection, schedule: Q01DX001 (ip), vehicle: saline 110 % of control | dose: 100.0 mg/kg/injection, schedule: Q01DX001 (ip), vehicle: saline 120 % of control

O=C(O)CCSSCCC(=O)O
inactive: [10] 95 % of control | [11] 100 % of control

N/N=C(/C=C/C(=O)O)c1ccccc1
inactive: dose: 100.0 mg/kg/injection, schedule: Q01DX001 (ip), vehicle: saline sonified 100 % of control | dose: 200.0 mg/kg/injection, schedule: Q01DX001 (ip), vehicle: saline sonified 109 % of control | dose: 400.0 mg/kg/injection, schedule: Q01DX001 (ip), vehicle: saline sonified 100 % of control

O=c1c2ccccc2nc(-c2ccccc2Cl)n1-c1nnc(C(F)(F)F)s1
inactive: dose: 3.12 mg/kg/injection, schedule: Q01DX009 (ip), vehicle: saline with Tween-80 87 % of control | [12] 89 % of control | [13] 89 % of control

S=C(S)N1CCOCC1
inactive: [4] 91 % of control | [14] 100 % of control | [5] 100 % of control | [15] 95 % of control | dose: 400.0 mg/kg/injection, schedule: Q01DX009 (ip), vehicle: saline 95 % of control | [16] 86 % of control

CCC1=C2C(=O)c3ccccc3C2=C(C)S(=O)(=O)O1
inactive: [12] 113 % of control and 118 % of control | [13] 118 % of control | [17] 122 % of control

COc1ccc(OC)c(C(=O)CCCC(=O)O)c1
inactive: dose: 100.0 mg/kg/injection, schedule: Q01DX001 (ip), vehicle: Klucel (hydroxypropylcellulose) (HPC) 100 % of control | dose: 100.0 mg/kg/injection, schedule: Q01DX009 (ip), vehicle: Klucel (hydroxypropylcellulose) (HPC) 90 % of control | [10] 100 % of control | dose: 200.0 mg/kg/injection, schedule: Q01DX001 (ip), vehicle: Klucel (hydroxypropylcellulose) (HPC) 104 % of control | dose: 200.0 mg/kg/injection, schedule: Q01DX009 (ip), vehicle: Klucel (hydroxypropylcellulose) (HPC) 90 % of control | [11] 91 % of control | dose: 400.0 mg/kg/injection, schedule: Q01DX001 (ip), vehicle: Klucel (hydroxypropylcellulose) (HPC) 95 % of control | dose: 400.0 mg/kg/injection, schedule: Q01DX009 (ip), vehicle: Klucel (hydroxypropylcellulose) (HPC) 95 % of control | [18] 87 % of control

O=c1c2cc3nc4ccccn4c(=O)c3cc2nc2ccccn12
inactive: [1] 91 % of control | [2] 86 % of control | [3] 91 % of control

O=C(Nc1cccc(C(F)(F)F)c1)Nc1c(Oc2ccc(Cl)c(Cl)c2)ccc(Cl)c1S(=O)(=O)O
inactive: dose: 50.0 mg/kg/injection, schedule: Q04DX003 (ip), vehicle: saline 90 % of control | [14] 100 % of control | [15] 113 % of control

S=C(Nc1cc2c3c(c1)CCCN3CCC2)Nc1cc2c3c(c1)CCCN3CCC2
inactive: dose: 100.0 mg/kg/injection, schedule: Q01DX001 (ip), vehicle: saline with Tween-80 109 % of control | dose: 200.0 mg/kg/injection, schedule: Q01DX001 (ip), vehicle: saline with Tween-80 100 % of control | dose: 400.0 mg/kg/injection, schedule: Q01DX001 (ip), vehicle: saline with Tween-80 95 % of control

COC(OC)c1cc(S)[nH]c(=O)c1F
inactive: [10] 100 % of control | [11] 110 % of control | [18] 100 % of control

O=C(c1cccnc1)C1Cc2ccccc2C1=O (stereo not given)
inactive: [2] 100 % of control | [6] 100 % of control | [3] 100 % of control | [7] 100 % of control | [9] 91 % of control | [8] 104 % of control

COc1ccc(CC#N)c(OCc2ccccc2)c1
inactive: dose: 12.5 mg/kg/injection, schedule: Q01DX009 (ip), vehicle: other 104 % of control | dose: 25.0 mg/kg/injection, schedule: Q01DX009 (ip), vehicle: other 102 % of control | dose: 50.0 mg/kg/injection, schedule: Q01DX009 (ip), vehicle: other 98 % of control | [19] 89 % of control | [20] 95 % of control

Nc1nc(-c2cccnc2)cc2ccccc12
inactive: dose: 12.5 mg/kg/injection, schedule: Q04DX003 (ip), vehicle: saline with Tween-80 106 % of control | [21] 91 % of control

CCCCCCCC(O)CCCCCCC
inactive: [19] 115 % of control | [20] 110 % of control | dose: 400.0 mg/kg/injection, schedule: Q01DX009 (ip), vehicle: other 100 % of control

c1ccc(CN2C3Oc4ccccc4C2Oc2ccccc23)cc1
inactive: [1] 94 % of control | [3] 87 % of control

O=C(Nc1ccc(S(=O)(=O)Nc2ccc(N=Nc3ccccc3)cc2)cc1)C(SC1=NC=NC2=NC=NC21)SC1=NC=NC2=NC=NC21 (stereo not given)
inactive: [14] 95 % of control | [15] 105 % of control | [16] 115 % of control

C=CC(=O)NC(C)C(=O)O (stereo not given)
inactive: [22] 105 % of control | [4] 105 % of control | [5] 100 % of control

Cc1cc(Cc2cc(C)c(C)c(C)c2C)c(C)c(C)c1C
inactive: [13] 93 % of control | [17] 100 % of control | [1] 98 % of control | [2] 97 % of control

Cc1ccc(CN(CC(=O)O)S(C)(=O)=O)cc1
inactive: dose: 100.0 mg/kg/injection, schedule: Q04DX003 (ip), vehicle: other 106 % of control | dose: 200.0 mg/kg/injection, schedule: Q04DX003 (ip), vehicle: other 109 % of control | dose: 400.0 mg/kg/injection, schedule: Q04DX003 (ip), vehicle: other 94 % of control

OCC1C2CCC(C2)C1CO (stereo not given)
inactive: dose: 12.5 mg/kg/injection, schedule: Q01DX009 (ip), vehicle: saline 105 % of control | dose: 25.0 mg/kg/injection, schedule: Q01DX009 (ip), vehicle: saline 110 % of control | [22] 115 % of control | dose: 75.0 mg/kg/injection, schedule: Q01DX009 (ip), vehicle: saline 115 % of control | dose: 115.0 mg/kg/injection, schedule: Q01DX009 (ip), vehicle: saline 95 % of control

c1ccc(COC2CN3CCC2CC3)cc1 (stereo not given)
inactive: [21] 122 % of control | dose: 50.0 mg/kg/injection, schedule: Q04DX003 (ip), vehicle: saline with Tween-80 100 % of control

CCCC#CCOCC1CO1 (stereo not given)
inactive: [2] 116 % of control | [6] 100 % of control | [3] 120 % of control | [7] 100 % of control | [8] 95 % of control

O=C(O)C1CC[N-]CC1.O=C(O)C1CC[N-]CC1.[NH2-].[NH2-].[Pt+4]
inactive: dose: 50.0 mg/kg/injection, schedule: Q01DX009 (ip), vehicle: water 96 % of control | dose: 100.0 mg/kg/injection, schedule: Q01DX009 (ip), vehicle: water 96 % of control | dose: 400.0 mg/kg/injection, schedule: Q01DX009 (ip), vehicle: water 113 % of control
